Like-named read-outs stand apart in the source and are kept apart here.
Legend:
[1] = Kinetic aqueous solubility in PBS pH 7.4; assay type: physicochemical; settings: PBS (pH 7.4), 37 °C, pH 7.4, aqueous buffer, kinetic from dmso stock, after 2 h at 37 °C in PBS, 500 μM target concentration, mean ± SEM, n = 3
Experimental: Preparative purifications over RP-HPLC were performed on a Kinetex XB C18 (5 μm, 250 × 21.2 mm) column on an Armen Spot Prep II integrated HPLC purification system (Gilson, Middleton, WI, USA) with dual-wavelength detection, with an adequately chosen combination of acetonitrile–water, and a flow rate of 15 mL/min. The purity of the compounds obtained was determined by RP-HPLC analyses on a system of two Jasco PU 2080 pumps, a Jasco AS-2055 Plus intelligent sampler connected to a JASCO LC-Net II/ADC equipped with a Jasco MD-2010 Plus PDA detector (Jasco International Co. Ltd., Hachioji, Tokyo, Japan) utilizing a Kinetex C-18 (5 μm, 250 × 4.6 mm) column (Phenomenex Inc., Torrance, CA, USA) and applying a gradient of 30%–100% aqueous AcN in 30 min followed by 100% ACN for 10 min with a flow rate of 1 mL/min. Analysis of samples from the PAMPA and kinetic solubility assays was performed the same way, by using 3-point calibrations and integrating each compound at its UV absorption maximum.
In a 96-well polypropylene plate (Greiner Bio-One, Kremsmünster, Austria), 15 μL stock solutions were added to 285 μL PBS (pH 7.4) to make starting donor solution with 500 μM as target concentration. For each sample, 3 replicates were measured. The samples were covered and shaken at 37 °C, 300 rpm for 2 h (Heidolph Titramax 1000, Heidolph Instruments GmbH & Co. KG, Schwabach, Germany). After that, each sample was transferred into a filter plate (MSSBLPC, Multiscreen Filter plate, Merck kGaA) and filtered (Vaccum Manifold, Merck kGaA, Darmstadt, Germany). The filtrates were transferred into HPLC vials, and acetonitrile (AcN) was added to aliquot to avoid precipitation. The final solvent ratio was AcN:PBS (70:30). Filtrate concentration was determined by HPLC-UV (see Section 2.1) using 3-points calibration.

xanthine oxidase (XO) = biological target: T1, xanthine oxidase (XO) (Bos taurus, UniProt P80457); assay: Xanthine oxidase inhibition, spectrophotometric; assay type: biochemical; settings: for inhibition at 100 µM: read-out: XO Inhibition (%); for XO Inhibition (%): % inhibition at 100 µM, mean ± SEM, n = 3
T1 construct: purchased Sigma (Merck KGaA)
T1 sequence (P80457 2-1332 limits assumed): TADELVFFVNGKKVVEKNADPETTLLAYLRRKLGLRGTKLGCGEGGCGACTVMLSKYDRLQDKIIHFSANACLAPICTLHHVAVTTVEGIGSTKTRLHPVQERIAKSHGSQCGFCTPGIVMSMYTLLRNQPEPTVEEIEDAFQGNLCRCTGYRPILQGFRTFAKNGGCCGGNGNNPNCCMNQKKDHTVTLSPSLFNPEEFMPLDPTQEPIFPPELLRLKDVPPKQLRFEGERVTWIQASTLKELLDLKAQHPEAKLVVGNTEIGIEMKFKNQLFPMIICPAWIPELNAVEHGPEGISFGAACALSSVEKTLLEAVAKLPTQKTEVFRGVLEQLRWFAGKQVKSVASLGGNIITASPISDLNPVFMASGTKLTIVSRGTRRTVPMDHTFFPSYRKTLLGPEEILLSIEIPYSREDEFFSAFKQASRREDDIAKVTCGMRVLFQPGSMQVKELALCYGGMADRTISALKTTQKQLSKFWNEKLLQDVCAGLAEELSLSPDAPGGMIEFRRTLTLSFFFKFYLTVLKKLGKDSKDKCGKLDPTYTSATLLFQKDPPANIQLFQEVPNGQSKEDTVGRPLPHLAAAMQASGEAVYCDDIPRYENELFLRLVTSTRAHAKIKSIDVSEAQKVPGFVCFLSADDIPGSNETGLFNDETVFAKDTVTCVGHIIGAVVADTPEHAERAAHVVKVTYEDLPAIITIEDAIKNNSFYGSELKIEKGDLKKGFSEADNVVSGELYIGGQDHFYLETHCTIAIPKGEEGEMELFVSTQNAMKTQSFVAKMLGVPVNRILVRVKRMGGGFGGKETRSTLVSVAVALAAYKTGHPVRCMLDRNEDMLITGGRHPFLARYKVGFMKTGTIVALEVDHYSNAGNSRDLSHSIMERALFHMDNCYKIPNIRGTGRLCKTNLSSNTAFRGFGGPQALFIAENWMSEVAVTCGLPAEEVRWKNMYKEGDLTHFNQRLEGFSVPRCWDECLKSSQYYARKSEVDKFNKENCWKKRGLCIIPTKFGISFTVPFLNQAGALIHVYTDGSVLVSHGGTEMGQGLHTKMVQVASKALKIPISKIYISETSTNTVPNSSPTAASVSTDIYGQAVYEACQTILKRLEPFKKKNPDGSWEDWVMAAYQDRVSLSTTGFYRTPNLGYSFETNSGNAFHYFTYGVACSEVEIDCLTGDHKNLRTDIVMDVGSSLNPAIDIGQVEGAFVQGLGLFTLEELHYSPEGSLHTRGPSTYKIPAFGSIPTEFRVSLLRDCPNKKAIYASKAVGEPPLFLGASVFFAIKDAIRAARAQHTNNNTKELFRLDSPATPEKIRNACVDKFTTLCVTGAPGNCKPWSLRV
Experimental: The xanthine oxidase (XO) inhibitory activity of the compounds was determined using continuous spectrophotometric rate based on a modified protocol of Sigma. […]. In a 96-well plate, the final reaction mixture consisted of 10 µL of sample (dissolved in DMSO, […] stock solution, 100 µM final), 100 µL of xanthine solution (0.15 mM, pH = 7.4), 140 µL of buffer (potassium phosphate, pH = 7.5) and 50 µL of XO (0.2 units/mL). When measuring the enzyme activity, control buffer was used in place of the sample. Allopurinol was applied as a control. The reaction was initiated by the automatic addition of 50 µL of XO solution. The absorbance of XO-induced uric acid production from xanthine was measured at 290 nm for 3 min in a 96-well plate on a BMG Labtech FluoStar Optima plate reader. The inhibitory percentage values were calculated by using Graph Pad Prism 8.0 (La Jolla, CA, USA).

COX-1 enzyme = biological target: T2, COX-1 enzyme (Ovis aries, UniProt P05979); assay: COX-1 inhibitor screening kit, fluorometric (BioVision K548-100); assay type: biochemical; settings: for IC50: mean ± SEM, n = 2; for LLE(COX-1): LLE = pIC50 − logPpredicted
T2 construct: purchased BioVision (via VWR International Kft.) K548-100
T2 sequence (P05979 25-600): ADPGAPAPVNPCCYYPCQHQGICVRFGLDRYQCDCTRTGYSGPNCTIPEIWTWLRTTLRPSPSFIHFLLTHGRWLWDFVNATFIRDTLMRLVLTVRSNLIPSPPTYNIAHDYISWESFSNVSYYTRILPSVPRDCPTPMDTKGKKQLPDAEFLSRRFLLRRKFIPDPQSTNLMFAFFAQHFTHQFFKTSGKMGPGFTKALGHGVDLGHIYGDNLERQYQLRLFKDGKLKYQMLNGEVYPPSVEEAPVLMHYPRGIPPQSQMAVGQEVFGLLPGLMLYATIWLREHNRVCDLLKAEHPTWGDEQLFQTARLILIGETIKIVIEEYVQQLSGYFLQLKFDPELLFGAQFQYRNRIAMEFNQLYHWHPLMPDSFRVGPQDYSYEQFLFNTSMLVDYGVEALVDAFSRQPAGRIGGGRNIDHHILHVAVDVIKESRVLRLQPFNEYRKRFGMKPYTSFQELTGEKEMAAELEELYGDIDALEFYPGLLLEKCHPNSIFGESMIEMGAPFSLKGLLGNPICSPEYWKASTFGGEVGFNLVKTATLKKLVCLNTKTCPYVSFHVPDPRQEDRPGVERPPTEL
Experimental: COX-1 inhibitory activity was tested based on the fluorometric method as described in BioVision’s COX-1 inhibitor screening kit leafkit (K548-100, BioVision, CA, USA). Sample solutions were prepared by dissolving in DMSO and subsequently buffer, to get desired concentrations. In a 96-well white plate (655101, F-bottom, Grenier bio-one, Germany), 80 µL reaction mix (containing 76 µL assay buffer, 1 µL COX Probe, 2 µL COX cofactor, and 1 µL COX-1 enzyme) was added to 10 µL sample solution, DMSO and assay buffer to get test wells assigned for sample screen (S), negative control (N) and blank, respectively. An aliquot of 10 µL of arachidonic/NaOH solution was added to each well using a multi-channel pipette to initiate the reaction at the same time, and the fluorescence of each well was measured kinetically at Ex/Em 550/610 nm, at 25OC for 10 min using a FluoStar Optima plate reader (BMG Labtech, Ortenberg, Germany). The COX inhibitory activity of SC560, a standard inhibitor, was also determined.
The change in fluorescence between two points, T1 and T2 were determined, and relative inhibition was calculated according to the following equation:% Inhibition = (ΔN − ΔS)/ΔN × 100 (1) where N is the absorbance of the negative control, and S is that of the sample.
Dose-effect studies on the compounds were used to determine the concentration that inhibits 50% of the enzyme activity. The sigmoidal dose–response model was obtained by using the software GraphPad Prism 8.0 (La Jolla, CA, USA), and these were used to determine the IC50 values of the compounds.

[2] = DPPH free radical scavenging assay; settings: for IC50: 30 min, room temperature, MeOH, mean ± SEM, n = 2, read-out: DDPH IC50
Experimental: (§1) All bioactivity data processing, including the calculation of inhibition percentage, mean and corresponding standard error of the mean (SEM), and IC50 values, was performed by GraphPad Prism 8.0 (La Jolla, CA, USA). IC50 values were calculated from the sigmoidal dose–response curves obtained by the log(inhibitor) vs. response and variable slope (DPPH assay) or the log(inhibitor) vs. normalised response and variable slope nonlinear regression model. On the results obtained, no statistical evaluation was performed; instead, differences greater than two-fold were considered relevant. Plotting of the antiplatelet and COX-1 inhibitory IC50 values and the linear regression of the data was performed by Microsoft Excel.
DPPH (1,10-diphenyl-2-picrylhydrazyl) was purchased from Thermo Fisher Scientific. DPPH free radical scavenging assay was performed with some modifications based on the method by previous study. Briefly, in a 96-well microplate, microdilutions of samples (100 µL, starting from 200 µM in HPLC grade MeOH) were made and 100 µL of DPPH reagent (100 µM in MeOH) was added. After 30 min at room temperature in the dark, the absorbance was measured at 550 nm using a FluoStar Optima plate reader (software version 2.20R2, BMG Labtech Ortenberg, Germany). For the blank control, MeOH was used. The scavenging activity was calculated as Inhibition (%) = (A0 − As)/A0 × 100, and IC50 values were calculated by GraphPad Prism 8.0 (La Jolla, CA, USA).

washed human platelets = assay: Arachidonic acid-induced platelet aggregation (turbidimetric aggregometer); assay type: cell-based; settings: washed human platelets treated 3 min, then arachidonic acid (100 μM), mean ± SEM, n = 3, read-out: Antiplatelet IC50
Experimental: as §1
Human platelet suspension (3 × 10^8/mL in Tyrode’s buffer) was prepared as previously described. The protocol for this study was approved by the institutional review board of Kaohsiung Medical University Hospital (Kaohsiung City, Taiwan). Platelets pre-treated with DMSO (vehicle control) or test compounds were stimulated with arachidonic acid (AA), and platelet aggregation was measured using turbidimetric aggregometer (Chrono-Log Co., Havertown, PA, USA) at 37 °C under stirring conditions (1200 rpm).

[3] = Oxygen radical absorbance capacity (ORAC); settings: 1 µM sample; mean ± SEM, n = 3
Experimental: AAPH ((2,20-Azobis(2-methyl-propionamidine) dihydrochloride) free radical and Trolox standard were purchased from Sigma-Aldrich Hungary. Fluorescein was purchased from Fluka Analytical, Tokyo, Japan. ORAC assay was carried out In a 96-well microplate based on the method from previous study. Briefly, 20 µL of the samples (1 µM final concentration, dissolved in phosphate buffer, pH = 7.4, containing 1% MeOH) were mixed with 60 µL of AAPH (12 mM final concentration, dissolved in phosphate buffer, pH = 7.4) and 120 µL of fluorescein solution (70 nM final concentration, dissolved in phosphate buffer), then the fluorescence was measured (excitation at λ = 485 nm, and emission at λ = 520 nm) through 3 h with 1.5-min cycle intervals with a BMG Labtech FluoStar Optima plate-reader. All experiments were carried out in triplicate, and Trolox was used as standard. The antioxidant capacity is expressed as Trolox Equivalent (TE), as calculated using GraphPad Prism 8.0 (La Jolla, CA, USA).

[4] = Peroxynitrite scavenging (pyrogallol red); settings: % inhibition at 500 µM; mean ± SEM, n = 3
Experimental: Peroxynitrite was synthesised by a continuous flow system using syringe pumps as published previously. Briefly, an acidic solution of hydrogen peroxide (0.6 M H2O2, 0.7 M HCl) was pumped to a junction alongside of sodium nitrite solution (0.6 M) at a flow rate of 1.5 mL/min. After passing 10 cm of tubing, it was mixed with a sodium hydroxide solution (1.5 M), also pumped at 1.5 mL/min. The resulting peroxynitrite solution was a bright yellow colour. The tubing around the reaction was submerged in ice. The concentration of the solution was determined by spectrophotometry and was adjusted to 30 mM with 0.1 M NaOH solution.
In a 96-well microplate 245 µL of pyrogallol red (100 µM final concentration, dissolved in 0.1 M glycine buffer) was mixed with 50 µL of sample (0.5 mM final concentration, dissolved in DMSO) and 5 µL ONOO^– solution (500 µM final concentration, freshly prepared). After mixing and keeping it at room temperature for 30 min the absorbance was measured at 550 nm using a FluoStar Optima plate reader (software version 2.20R2, BMG Labtech, Ortenberg, Germany).

CCCCCC(=O)CC(=O)CCc1ccc(O)c(OC)c1 [Compound 13C]
solubility kinetic at 2 h [1]: 315 ± 23.7 µM

CCCCC/C(O)=C/C(=O)/C=C/c1ccc(O)cc1 [Compound 12A]
solubility kinetic at 2 h [1]: 15.6 ± 0.1 µM

CCCCCC(=O)CC(=O)/C=C/c1ccc(O)cc1 [Compound 12, (E)-1-(4-hydroxyphenyl)dec-1-ene-3,5-dione]
inhibition at 100 µM (xanthine oxidase (XO)): < 5% | IC50 (COX-1 enzyme): > 200 µM | DPPH scavenging activity (in words) [2]: inactive | IC50 [2]: > 200 µM | IC50 (washed human platelets; Platelet, 0.05 h): 71.7 ± 28.3 µM | ORAC TE [3]: 2.89 ± 0.49 Trolox equivalents (TE) | ONOO^– Scavenging (%) [4]: <5.0%

Oc1ncnc2[nH]ncc12 [allopurinol, reference compound]
inhibition at 100 µM (xanthine oxidase (XO)): 98.8 ± 0.11%

CCCCCC(=O)CC(=O)CCc1ccc(O)c(OC)c1 [Compound 13, 6-gingerdione]
XO Inhibition (%) (xanthine oxidase (XO)): <5.0% | LLE(COX-1) (COX-1 enzyme): 1.53 | IC50 (COX-1 enzyme): 11.8 ± 5.4 µM | IC50 [2]: 10.9 ± 0.69 µM | IC50 (washed human platelets): 3.6 ± 0.9 µM | ORAC TE [3]: 2.60 ± 0.06 Trolox equivalents (TE) | ONOO^– Scavenging (%) [4]: <5.0%

CCCCCC(=O)/C=C(O)/C=C/c1ccc(O)c(OC)c1 [Compound 11B]
solubility kinetic at 2 h [1]: 54 ± 1.3 µM

CCCCC/C(O)=C/C(=O)/C=C/c1ccc(O)c(OC)c1 [Compound 11A]
solubility kinetic at 2 h [1]: 54 ± 1.3 µM

CCCCCC(=O)CC(=O)/C=C/c1ccc(O)c(OC)c1 [Compound 11C]
solubility kinetic at 2 h [1]: 54 ± 1.3 µM

CCCCCC(=O)CC(=O)/C=C/c1ccc(O)c(OC)c1 [Compound 11, 6-dehydrogingerdione]
XO Inhibition (%) (xanthine oxidase (XO)): <5.0% | LLE(COX-1) (COX-1 enzyme): 1.14 | IC50 (COX-1 enzyme): 23.1 ± 9.3 µM | IC50 [2]: 9.04 ± 0.19 µM | IC50 (washed human platelets): 4.1 ± 1 µM | ORAC TE [3]: 1.98 ± 0.12 Trolox equivalents (TE) | ONOO^– Scavenging (%) [4]: <5.0%

CCCCC/C(O)=C/C(=O)CCc1ccc(O)c(OC)c1 [Compound 13A]
solubility kinetic at 2 h [1]: 315 ± 23.7 µM

CCCCCC(=O)/C=C(\O)CCc1ccc(O)c(OC)c1 [Compound 13B]
solubility kinetic at 2 h [1]: 315 ± 23.7 µM

CCCCCC(=O)CC(=O)/C=C/c1ccc(O)cc1 [Compound 12C]
solubility kinetic at 2 h [1]: 15.6 ± 0.1 µM

CCCCCC(=O)/C=C(O)/C=C/c1ccc(O)cc1 [Compound 12B]
solubility kinetic at 2 h [1]: 15.6 ± 0.1 µM
